The structures appear in SMILES notation. Several values for one entry are separate records, joined by “and”; a condition that tells them apart may be missing. Equal values may be shown once. Read-outs that look alike come from different tables or passages of the source. A value given as a limit tells only on which side of the number the result lay.

The term Ki denotes a measure of affinity in units of concentration, obtained from inhibition or displacement.

What all share (assay type): biochemical
In one assay the target is T1, hepsin (Homo sapiens, UniProt P05981).
T1 construct: purchased R&D Systems 4776-SE-010
T1 sequence (P05981 163-417 limits assumed): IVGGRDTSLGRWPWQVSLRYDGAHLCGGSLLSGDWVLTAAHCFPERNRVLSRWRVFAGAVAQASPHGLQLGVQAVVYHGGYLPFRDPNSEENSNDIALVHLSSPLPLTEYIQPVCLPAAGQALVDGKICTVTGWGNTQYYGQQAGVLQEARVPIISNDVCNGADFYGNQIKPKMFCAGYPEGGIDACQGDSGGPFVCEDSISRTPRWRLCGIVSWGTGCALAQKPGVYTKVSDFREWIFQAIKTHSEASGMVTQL
T1 sequence (P05981 45-162 partner limits assumed): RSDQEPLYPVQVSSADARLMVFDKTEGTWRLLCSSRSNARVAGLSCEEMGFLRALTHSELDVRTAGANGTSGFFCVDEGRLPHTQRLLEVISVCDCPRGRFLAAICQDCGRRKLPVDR
Description: Fluorescent kinetic enzyme inhibitor assay of hepsin. The following applies: Fluorogenic Assay, read-out: Hepsin Ki. As for the experimental part: (§1) Inhibitors (11-pt serial dilutions, 0-20 μM final concentration in reaction) were serially diluted in DMSO (2% DMSO final concentration) and then mixed with either recombinant serine protease domain of HGFA [Z. Han, P. K. Harris, D. E. Jones, R. Chugani, T. Kim, M. Agarwal, W. Shen, S. A. Wildman, J. W. Janetka, Acs Med Chem Lett 2014, 5, 1219-1224], matriptase (Charles Craik, UCSF) or hepsin* (#4776-SE-010, R&D Systems, Minneapolis, Minn.) in black 384 well plates (Corning #3575. Corning, N.Y.). […] The final substrate concentrations for all assays were at the Km for the respective enzymes. Changes in fluorescence (excitation at 380 nm and emission at 460 nm) were measured at room temperature over time in a Biotek Synergy 2 plate reader (Winnoski, Vt.). Using GraphPad Prism version 6.04 software program, (GraphPad Software, San Diego, Calif., www.graphpad.com), a four parameter curve fit was used to determine the inhibitor IC50s from a plot of the mean reaction velocity versus the inhibitor concentration. The IC50 values represent the average of three separate experimental determinations.

In the next assay the target is T2, HGFA (Homo sapiens, UniProt Q04756).
T2 construct: His6 tag (N); seven amino acid spacer and seven amino acid TEV cleavage site (N); Honey Bee melittin signal peptide (N); made in house; host or cells: High 5 insect cells (baculovirus; virus raised in Sf9)
T2 sequence (Q04756 373-655): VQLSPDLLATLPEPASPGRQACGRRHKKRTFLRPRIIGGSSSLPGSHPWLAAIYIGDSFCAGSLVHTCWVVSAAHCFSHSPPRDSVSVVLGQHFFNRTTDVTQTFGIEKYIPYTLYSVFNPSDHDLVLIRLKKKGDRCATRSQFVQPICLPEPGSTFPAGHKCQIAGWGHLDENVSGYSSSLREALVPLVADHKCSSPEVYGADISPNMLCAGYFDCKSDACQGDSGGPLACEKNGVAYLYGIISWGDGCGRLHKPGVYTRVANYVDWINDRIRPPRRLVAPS
Description: Fluorescent kinetic enzyme inhibitor assay of HGFA. Conditions: read-out: HGFA Ki.
Source text: Using primers identified as SEQ ID NO 1, SEQ ID NO 2, and standard PCR protocols, the nucleotide sequence encoding amino acids 373-655 of HGFA was synthesized. This PCR product was cloned into the SfoI-HindIII sites of a modified pFastBac HT baculovirus expression vector (Addgene, Cambridge, Mass.). This vector contains a six amino His tag followed by a seven amino spacer and a seven amino acid TEV cleavage site placed immediately downstream of the Honey Bee melittin signal peptide. Using a modified Bac to Bac Expression System (Life Technologies, Carlsbad, Calif.), recombinant HGFA bacmids were obtained by transforming DH10Bac Escherichia coli cells. To obtain HGFA containing baculovirus, purified bacmids were transfected into Sf9 insect cells. After 5 days in culture at 27° C., media was harvested from transfected Sf9 cells. This media was used to prepare baculovirus infected insect cells (BIICs). These BIIICs were used to infect High 5 insect cells. Four days post infection, media was harvested and recombinant protein prepared as follows. Media was chilled to 4° C. and spun at 4000×g for 20 minutes (all subsequent steps were performed at 4° C. unless noted). Clarified media was passed first through a Whatman GF/B 1 um (#1821-047, GE Healthcare Life Sciences, Piscataway, N.J.) and then a 0.22 um PES membrane (#99955, TPP Techno Plastic Products AG, Trasadingen, Switzerland) and then concentrated using a Pall Centramate tangential flow system and Centramate T-series Cassette (#OS010T12, Pall Corporation, Port Washington, N.Y.). Concentrated media was then buffer exchanged in two steps, five volumes of 50 mM Na-phosphate, 500 mM NaCl, pH 6.2, followed by five volumes of 50 mM Na-phosphate, 500 mM NaCl, pH 7.5. The concentrated and buffered exchanged insect cell media was again filtered as above and made 25 mM imidazole (#1202, Sigma-Aldrich, St. Louis, Mo.) and was mixed with nickel agarose beads (#H-321-25, Gold Biotechnology, Inc., St. Louis Mo.). After mixing this slurry for 12 hours, nickel agarose beads were allowed to settle by gravity and then loaded into a column. Beads were washed with buffer (25 mM Na-phosphate, 500 mM NaCl, 25 mM imidazole, pH 8) and the bound protein eluted using (25 mM Na-phosphate, 500 mM NaCl, 250 mM imidazole, pH 8). Using a Amicon Ultra-4 Centrifugal filters (#UFC801008, Merck Millipore, Ltd., Tullagreen, Ireland), peak protein fractions were concentrated and run over a Superdex-200 10/300 GL column (GE Healthcare Life Sciences, Piscataway, N.J.) in 10 mM Tris, 200 mM NaCl, 0.2 mM EDTA, pH 8. HGFA containing fractions were pooled, concentrated, made 50% glycerol, and stored at minus 20° C. Protein was quantitated using a modified Lowry protein assay (#500-0006, Bio-Rad Laboratories, Hercules, Calif.).
as §1

The target of another assay is T3, matriptase (Homo sapiens, UniProt Q9Y5Y6).
T3 construct: Charles Craik, UCSF (obtained from another laboratory)
T3 sequence (Q9Y5Y6 615-855 limits assumed): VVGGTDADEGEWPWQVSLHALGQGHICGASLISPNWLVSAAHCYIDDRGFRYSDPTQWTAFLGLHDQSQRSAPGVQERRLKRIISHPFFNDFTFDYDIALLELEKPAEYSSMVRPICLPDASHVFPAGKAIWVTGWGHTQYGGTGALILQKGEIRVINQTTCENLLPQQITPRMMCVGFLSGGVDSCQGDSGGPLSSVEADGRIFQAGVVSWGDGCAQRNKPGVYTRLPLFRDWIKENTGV
Kind of assay: Fluorescent kinetic enzyme inhibitor assay of matriptase. The following applies: Fluorogenic Assay. As for the experimental part:
as §1

Regarding `N=C(N)c1cccc(C[C@H](NS(=O)(=O)c2ccc3ccccc3c2)C(=O)N2CCC(c3ccccc3)CC2)c1` [Compound 16, (S)-3-(2-(Naphthalene-2-sulfonamido)-3-oxo-3-(4-phenylpiperidin-1-yl)propyl)benzimidamide], the Ki was 3.28 µM on hepsin (Table 9.1); 10.1 µM on HGFA (Table 9.1, Fluorogenic Assay); 0.3 µM at matriptase (Table 9.1).

`CC(C)C(=O)N1CCN(C(=O)[C@H](Cc2cccc(C(=N)N)c2)NS(=O)(=O)c2ccc3ccccc3c2)CC1` [Compound 29]: the inhibitory constant (Ki) on hepsin (Table 9.1) and on matriptase (Table 9.1) was > 20 µM each time.

With `Cc1nc(-c2cccc(C[C@H](NS(=O)(=O)c3ccc4ccccc4c3)C(=O)N3CCN(C(=O)NCc4ccccc4)CC3)c2)no1` [FMF-1-254-004], the Ki on hepsin (Table 9.3) is > 10 µM; at HGFA (Table 9.3, Fluorogenic Assay), > 50 µM; on matriptase (Table 9.3), > 10 µM.

For `Cc1ccc(S(=O)(=O)N[C@@H](Cc2cccc(C(=N)N)c2)C(=O)N2CCC[C@H](NC(=O)OCc3ccccc3)C2)cc1` [Compound 18, Benzyl (S)-1-((S)-3-(3-carbamimidoylphenyl)-2-(4-methylphenylsulfonamido)propanoyl)piperidin-3-ylcarbamate], the Ki on hepsin (Table 9.2) was 2.3 µM; at HGFA (Table 9.2, Fluorogenic Assay) it was > 50 µM; on matriptase (Table 9.2), 1 µM.

Take `CCOC(=O)N1CCN(C(=O)[C@H](Cc2cccc(C(=N)N)c2)NS(=O)(=O)c2ccc3ccccc3c2)CC1` [FMF-1-275-004]: the figures for the Ki at hepsin (Table 9.1) and at matriptase (Table 9.1) were 39.5 µM and 2.78 µM, respectively.

`CCCCCCNC(=O)N1CCN(C(=O)[C@H](Cc2cccc(C(=N)N)c2)NS(=O)(=O)c2ccc3ccccc3c2)CC1` [Compound 25d, (S)-4-(3-(3-Carbamimidoylphenyl)-2-(naphthalene-2-sulfonamido)propanoyl)-N-hexylpiperazine-1-carboxamide]: the Ki at hepsin (Table 9.1) is 1.3 µM and 1.28 µM; on HGFA (Table 9.1, Fluorogenic Assay), > 50 µM; at matriptase (Table 9.1) it was 14.9 µM; on matriptase (Table 9.1, listed as FMF-1-278-003), 14.9 µM.

As for `N=C(N)NCCC[C@H](NC(=O)[C@H](CCC(N)=O)NC(=O)OCC1c2ccccc2-c2ccccc21)C(=O)c1nc2ccccc2s1` [Compound 7185-6, Fmoc-QR-kbt], the Ki on matriptase (Table 6.1) was found to be 0.0016 µM.

For `N=C(N)c1cccc(C[C@H](NS(=O)(=O)c2ccc3ccccc3c2)C(=O)N2CCN(c3ccccc3)CC2)c1` [Compound 25g, (S)-3-(2-(Naphthalene-2-sulfonamido)-3-oxo-3-(4-phenylpiperazin-1-yl)propyl)benzimidamide], the figures for the Ki at hepsin (Table 9.1), at HGFA and at matriptase (Table 9.1) were 7 µM, 18.3 µM and 1.8 µM, respectively.

`N=C(N)NCCC[C@H](NC(=O)[C@H](Cc1ccccc1)NC(=O)[C@H](N)Cc1c[nH]c2ccccc12)C(=O)c1nc2ccc(C(=O)O)cc2s1` [Compound 1-45A1, H-dWFR-kbt-COOH]: the Ki worked out at 0.00141 µM at hepsin (Table 6.1) and 0.981 µM at HGFA (Table 6.1, Fluorogenic Assay).

On to `N=C(N)c1cccc(C[C@H](NS(=O)(=O)c2ccc3ccccc3c2)C(=O)N2CCN(C(=O)Cc3cccc(O)c3)CC2)c1` [Compound 31], for which the Ki on hepsin (Table 9.1) was found to be 1.7 µM; at matriptase (Table 9.1), 4.4 µM.

Regarding `N=C(N)c1cccc(C[C@H](NS(=O)(=O)c2ccc3ccccc3c2)C(=O)N2CCN(C(=O)Cc3ccc(F)cc3)CC2)c1` [Compound 32], the Ki on hepsin (Table 9.1) amounted to 1 µM; on matriptase (Table 9.1) it was 2.8 µM.

As to `CC(C)CN1CCN(C(=O)[C@H](Cc2cccc(C(=N)N)c2)NS(=O)(=O)c2ccc3ccccc3c2)CC1` [Compound 30], the results for the Ki on hepsin (Table 9.1) and on matriptase (Table 9.1) were 4.9 µM and 12.4 µM, respectively.

Turning to `Cc1ccc(S(=O)(=O)N[C@@H](Cc2cccc(C(=N)N)c2)C(=O)N2CCN(C(=O)OCc3ccccc3)CC2)cc1` [Compound 25h, (S)-Benzyl 4-(3-(3-carbamimidoylphenyl)-2-(4-methylphenylsulfonamido)propanoyl)piperazine-1-carboxylate], the Ki on hepsin (Table 9.1) was 2.4 µM; on HGFA (Table 9.1, Fluorogenic Assay), > 50 µM.

These data come from patent US11130780B2, “Inhibitors of growth factor activation enzymes” (Washington University, priority 2015, dated 2021).
